From PubChem BioAssay (NCI)
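Values below derive from 48-hour exposures of cells grown in 96-well plates, with endpoints linearly interpolated between the two concentrations bracketing the appropriate inhibition level. Definition used: TGI = concentration required for complete inhibition of growth.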

Legend:
Experiment in all cases: DTP human tumour cell line panel, 48 h
BT-549 breast = system: BT-549 breast
DU-145 prostate = system: DU-145 prostate
HCC-2998 colon = system: HCC-2998 colon
HOP-92 NSCLC = system: HOP-92 NSCLC
LOX IMVI melanoma = system: LOX IMVI melanoma
MALME-3M melanoma = system: MALME-3M melanoma
MDA-N = system: MDA-N
NCI-H23 lung = system: NCI-H23 lung
NCI-H522 lung = system: NCI-H522 lung
OVCAR-3 ovarian = system: OVCAR-3 ovarian
OVCAR-4 ovarian = system: OVCAR-4 ovarian
SK-MEL-28 melanoma = system: SK-MEL-28 melanoma
SK-OV-3 ovarian = system: SK-OV-3 ovarian
SNB-75 CNS = system: SNB-75 CNS
SW-620 colon = system: SW-620 colon
UACC-257 melanoma = system: UACC-257 melanoma

SMILES | TGI (BT-549 breast) [µM] | TGI (DU-145 prostate) [µM] | TGI (HCC-2998 colon) [µM] | TGI (HOP-92 NSCLC) [µM] | TGI (LOX IMVI melanoma) [µM] | TGI (MALME-3M melanoma) [µM] | TGI (MDA-N) [µM] | TGI (NCI-H23 lung) [µM] | TGI (NCI-H522 lung) [µM] | TGI (OVCAR-3 ovarian) [µM] | TGI (OVCAR-4 ovarian) [µM] | TGI (SK-MEL-28 melanoma) [µM] | TGI (SK-OV-3 ovarian) [µM] | TGI (SNB-75 CNS) [µM] | TGI (SW-620 colon) [µM] | TGI (UACC-257 melanoma) [µM]
C=CC(Br)(CBr)CCC1OC1(C)C (stereo not given) | 30.2 | 59.8 | 33.1 | 28.2 | 17.8 | 38.2 | 24.5 | 30.3 | 34.1 | 36.8 | 30.5 | 30.5 | 51.7 | 32.3 | 26.8 | 27.7
COc1ccc(-c2nc(SCC(=O)N/N=C/c3ccc([N+](=O)[O-])cc3)[nH]c2-c2ccc(OC)cc2)cc1 | 51.3 | > 100 | 31.5 | > 61.3 | 44.1 | 50.8 | 12.9 | 85.6 | 29.7 | > 64.5 | > 100 | > 72 | > 81.9 | > 63.3 | > 65.7 | 49.4
Cc1ccc(S(=O)(=O)NN=C2C(C)CC(C(C)(C)C)CC2C)cc1 (stereo not given) | 35.5 | 39.1 | 32.1 | 30.1 | 33.2 | 32.6 | 40.9 | 56.5 | 50.2 | 31.8 | 29.1 | 36.6 | 51.7 | 37.8 | 40.6 | 36.6
COc1cc(/C=C2\N=C(c3ccccc3)N(c3ccc4c(c3)Sc3cc(N5C(=O)/C(=C/c6cc(OC)c(OC)c(OC)c6)N=C5c5ccccc5)ccc3N4)C2=O)cc(OC)c1OC | 55.6 | > 100 | 50.6 | 40.6 | 52 | 41.1 | 37.9 | 40.3 | 42.5 | 40.7 | 36.9 | > 100 | 38.1 | 52.5 | > 100 | 31.3
CC(Cc1ccc(O)cn1)(NC(=O)c1ccccc1)C(=O)O (stereo not given) | > 100 | > 100 | > 100 | > 100 | > 100 | > 100 | > 100 | > 100 | > 100 | > 100 | > 100 | > 100 | > 100 | > 100 | > 100 | > 100
Brc1ccc(N=C/C=C(\Nc2ccc(Br)cc2)C23CC4CC(CC(C4)C2)C3)cc1 | 49.7 | 35.4 | 35.8 | 31.5 | 21.8 | 42.8 | 34.9 | > 65.8 | 30.5 | 28.9 | 31.3 | > 59.5 | > 100 | 35.5 | 92.1 | 36.8
Cc1nn(C(=O)c2ccc(Cl)cc2)c2c1C(c1ccccc1)SC(N)=N2 (stereo not given) | > 10 | > 10 | > 10 | > 10 | > 10 | > 10 | > 10 | > 10 | > 10 | > 10 | > 10 | > 10 | > 10 | > 10 | > 10 | > 10
COc1ccc2cc(NC(=O)Nn3cnnc3)ccc2c1 | > 100 | > 100 | > 100 | > 100 | > 100 | > 100 | > 100 | > 100 | > 100 | > 100 | > 100 | > 100 | > 100 | > 100 | > 100 | > 100
CC1NC(=O)c2c(-c3ccccc3)nn(-c3ccccc3)c2NC1=O (stereo not given) | > 100 | > 100 | > 100 | > 100 | > 100 | > 100 | > 100 | > 100 | > 100 | > 100 | > 100 | > 100 | > 100 | > 100 | > 100 | > 100
Cc1ccc2[nH]c3c(C)c4cc[n+](C)cc4c(C)c3c2c1 | 3.05 | 33.5 | 10.1 | 33.7 | 28.9 | 4.38 | 22.1 | 5.77 | 3.9 | 19.2 | 13.4 | 8.48 | 50.2 | 0.761 | 12.2 | 20.2
[N-]=[N+]=NCC(=O)c1c[nH]c(=O)[nH]c1=O | > 100 | > 100 | > 100 | > 100 | > 100 | > 100 | > 100 | > 100 | > 100 | > 100 | > 100 | > 100 | > 100 | > 100 | > 100 | > 100
CCOc1ccc(-n2c(=O)c3nn4c(=O)n(-c5ccc(OCC)cc5)c(=O)c4nn3c2=O)cc1 | > 100 | > 100 | > 100 | > 100 | > 100 | > 100 | > 100 | > 100 | > 100 | > 100 | > 100 | > 100 | > 100 | 75.7 | > 100 | > 100
O=C(OC1C#CCSCC#C/C=C\1)c1cnc2ccccc2n1 (stereo not given) | > 100 | > 100 | > 100 | > 100 | > 100 | > 100 | > 100 | > 100 | > 100 | > 100 | > 100 | > 100 | > 100 | > 100 | > 100 | > 100
Cc1ccc([N+](=O)[O-])cc1S(=O)(=O)Nc1ccc(C(=O)/C=C/c2ccccc2)cc1 | 33.7 | 29.5 | 32.1 | 41.1 | 36.7 | 39.5 | 42.8 | 34.7 | 53 | 30.7 | 5.51 | 49.6 | 95 | 32.3 | 59.4 | 34.6
O=C(Nn1c(-c2ccccc2)nc2ccccc2c1=O)c1ccc([N+](=O)[O-])cc1 | > 100 | > 100 | > 100 | > 100 | > 100 | > 100 | > 100 | > 100 | > 100 | > 100 | > 100 | > 100 | > 100 | > 100 | > 100 | > 100
